Laboratory results taken from patent US12144802B2, “Pharmaceutical compositions of roflumilast and solvents capable of dissolving high amounts of the drug” (ARCUTIS BIOTHERAPEUTICS, INC., priority 2022, dated 2024).

Assay: solubility (saturation concentration) of roflumilast in solvent-water blends, HPLC after 0.2 micron filtration
Format: physicochemical
Conditions: controlled room temperature
Procedure: The solubility of roflumilast in various solvents was determined. Compositions of roflumilast and the solvents identified in Table 1 were prepared. To prepare the compositions, 10 g of a solvent-water blend was added into a 20 mL clear glass vial. 0.05 g of the active pharmaceutical ingredient (API), roflumilast, was added into the vial. The vial was mixed on a jar roller at controlled room temperature at an appropriate speed. A visual evaluation was performed after shaking. If all of the API was dissolved, an additional 0.05 g of API was added into the vial and further mixing was performed. If any API remained undissolved, the total amount of API added to the vial was recorded. The visual inspection was repeated as necessary until no more API could be dissolved. For each solvent, the solubility was determined by syringe filtering (0.2 micron filter) the solvent blend to remove undissolved roflumilast and determining the amount of dissolved roflumilast using HPLC analysis. Composition of the solvent blends were an equal molar solvent-water mixtures, as well as a 1:2 (weight:weight) solvent-water blends. Transcutol P, which is described for use with roflumilast in U.S. Patent Publication No. 2019/009133, was used as a reference point in Example 1.

With `O=C(Nc1c(Cl)cncc1Cl)c1ccc(OC(F)F)c(OCC2CC2)c1` [roflumilast, N-(3,5-dichloropyrid-4-yl)-3-cyclopropylmethoxy-4-difluoromethoxybenzamide] the “μg roflumilast per mL blend (saturation concentration)” value (shortened to “μg roflumilast per mL blend”) (1:2 solvent to water (weight:weight), reference solvent Transcutol P (111-90-0), 5.00 g solvent, 10.01 g water) was 45.01 µg/mL, the “μg roflumilast per mL blend” value (1:2 solvent to water (weight:weight), solvent 1,2-hexanediol (6920-22-5), 5.02 g solvent, 10.02 g water) was 293.26 µg/mL and the “μg roflumilast per mL blend” value (1:2 solvent to water (weight:weight), solvent 1,2-pentanediol (3174-67-2), 5.01 g solvent, 10.04 g water) was 139.71 µg/mL. The “μg roflumilast per mL blend” value (1:2 solvent to water (weight:weight), solvent 1,3-butylene glycol (107-88-0), 5.01 g solvent, 10.00 g water) was 11.27 µg/mL, the “μg roflumilast per mL blend” value (1:2 solvent to water (weight:weight), solvent 1,3-propanediol (504-63-2), 5.01 g solvent, 10.02 g water) was 6.23 µg/mL and the “μg roflumilast per mL blend” value (1:2 solvent to water (weight:weight), solvent 1,6-hexanediol (629-11-8), 5.01 g solvent, 10.02 g water) was 112.31 µg/mL. The “μg roflumilast per mL blend” value (1:2 solvent to water (weight:weight), solvent 2-(2-butoxy-ethoxy)ethanol (112-34-5), 5.01 g solvent, 10.01 g water) was 802.24 µg/mL, the “μg roflumilast per mL blend” value (1:2 solvent to water (weight:weight), solvent 5-methyloxolan-2-one (108-29-2), 5.01 g solvent, 10.01 g water) was 392.14 µg/mL and the “μg roflumilast per mL blend” value (1:2 solvent to water (weight:weight), solvent Pantolactone (599-04-2), 5.03 g solvent, 10.02 g water) was 62.04 µg/mL. For the same compound, the “μg roflumilast per mL blend” value (1:2 solvent to water (weight:weight), solvent dipropylene glycol (25265-71-8), 5.01 g solvent, 10.01 g water) was 34.44 µg/mL, the “μg roflumilast per mL blend” value (1:2 solvent to water (weight:weight), solvent propylene glycol methyl ethyl acetate (107-98-2), 5.01 g solvent, 10.03 g water) was 65.80 µg/mL and the “μg roflumilast per mL blend” value (equal molar solvent-water blend, reference solvent Transcutol P (111-90-0), 2.00 g solvent, 14.81 g water) was 2.55 µg/mL. The “μg roflumilast per mL blend” value (equal molar solvent-water blend, solvent 1,2-hexanediol (6920-22-5), 2.00 g solvent, 13.24 g water) was 37.67 µg/mL, the “μg roflumilast per mL blend” value (equal molar solvent-water blend, solvent 1,2-pentanediol (3174-67-2), 2.21 g solvent, 12.80 g water) was 4.16 µg/mL and the “μg roflumilast per mL blend” value (equal molar solvent-water blend, solvent 1,3-butylene glycol (107-88-0), 2.52 g solvent, 12.51 g water) was 1.46 µg/mL. The “μg roflumilast per mL blend” value (equal molar solvent-water blend, solvent 1,3-propanediol (504-63-2), 3.00 g solvent, 12.60 g water) was 2.77 µg/mL, the “μg roflumilast per mL blend” value (equal molar solvent-water blend, solvent 1,6-hexanediol (629-11-8), 2.00 g solvent, 13.11 g water) was 5.81 µg/mL and the “μg roflumilast per mL blend” value (equal molar solvent-water blend, solvent 2-(2-butoxy-ethoxy)ethanol (112-34-5), 1.50 g solvent, 13.50 g water) was 2.29 µg/mL. For the same compound, the “μg roflumilast per mL blend” value (equal molar solvent-water blend, solvent 5-methyloxolan-2-one (108-29-2), 2.51 g solvent, 14.03 g water) was 7.80 µg/mL, the “μg roflumilast per mL blend” value (equal molar solvent-water blend, solvent Pantolactone (599-04-2), 2.00 g solvent, 14.41 g water) was 0.96 µg/mL and the “μg roflumilast per mL blend” value (equal molar solvent-water blend, solvent dipropylene glycol (25265-71-8), 2.02 g solvent, 14.84 g water) was 2.27 µg/mL. For the same compound, the “μg roflumilast per mL blend” value (equal molar solvent-water blend, solvent propylene glycol methyl ethyl acetate (107-98-2), 2.50 g solvent, 12.52 g water) was 6.04 µg/mL.
